Measured values as given in patent US10478421B1, “Sortilin binding compounds, formulations, and uses thereof” (University of Florida, priority 2016, dated 2019).

Key:
[1] = biological target: T1, human sortilin (Homo sapiens, UniProt Q99523); experiment: Thermophoresis binding to human sortilin
T1 sequence (Q99523 78-831): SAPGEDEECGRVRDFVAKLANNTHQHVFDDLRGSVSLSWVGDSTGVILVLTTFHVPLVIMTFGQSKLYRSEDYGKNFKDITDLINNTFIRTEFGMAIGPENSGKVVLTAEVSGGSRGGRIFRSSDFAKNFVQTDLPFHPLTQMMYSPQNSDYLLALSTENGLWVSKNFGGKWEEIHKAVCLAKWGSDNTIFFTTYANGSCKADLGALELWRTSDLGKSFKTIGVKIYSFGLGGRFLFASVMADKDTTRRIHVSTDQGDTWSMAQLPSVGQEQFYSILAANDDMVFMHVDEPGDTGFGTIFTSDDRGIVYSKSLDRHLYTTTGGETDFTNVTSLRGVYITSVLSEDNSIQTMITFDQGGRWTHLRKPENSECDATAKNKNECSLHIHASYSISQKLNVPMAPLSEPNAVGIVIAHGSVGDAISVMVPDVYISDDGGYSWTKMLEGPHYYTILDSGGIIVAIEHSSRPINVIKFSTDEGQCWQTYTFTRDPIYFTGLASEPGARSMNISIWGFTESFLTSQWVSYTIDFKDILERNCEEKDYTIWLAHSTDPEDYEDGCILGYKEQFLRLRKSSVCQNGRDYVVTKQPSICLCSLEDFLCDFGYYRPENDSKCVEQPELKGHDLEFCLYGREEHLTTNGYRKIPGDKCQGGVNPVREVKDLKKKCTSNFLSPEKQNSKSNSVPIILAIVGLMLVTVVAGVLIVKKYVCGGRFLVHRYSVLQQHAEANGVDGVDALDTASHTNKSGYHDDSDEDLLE
Protocol: Due to inherent fluorescence of 541 small molecule, thermophoresis was performed in two different buffer conditions (PBS n=3 and MST n=2) and at two sets of concentration ranges. […] SPR indicates a high and low affinity binding site of cpd984 to human sortilin of hsortilin with Kd of about 200 μM and about 20 nM.

[2] = test system: LDLR; experiment: Cellular LDLR by immunoblot in McA cells; format: cell-based, rat; settings: 10 μM, 18 h, 1% BSA/DMEM
Protocol: McA cells were incubated in 1% BSA/DMEM with DMSO, 541 (10 μM) or 984 (10 μM) for 18 h. Cellular proteins were extracted and analyzed by IB for LDLR (LS-C146979, 1:2000) (FIG. 5A) or PCSK9 (Ab125251, 1:2000) (FIG. 5B) using HRP-linked secondary antibody and ECL detection. Loading controls included β-ACTIN (Rockland ph600-401-886) and GAPDH (cb1001mAb (6C5). Band intensities were measured using ChemiDocXRS+ system and evaluated using ImageLab 5.1 software (BioRad). Results are average of triplicates ±S.D. PCSK9 is a known ligand for sortilin where sortilin acts as a chaperone for PCSK9 secretion.

[3] = test system: McA cells; experiment: Insulin signaling (pY-IRβ, p-AKT S473) by immunoblotting in McA cells; format: cell-based, rat; settings: 10 μM, 18 h, then 250 nM insulin
Protocol: (FIG. 4A) McA cell lines with variable sortilin KD were incubated with vehicle (black bars) or with 10 μM cpd984 (gray bars) for 18 h (3-100 mm plates per condition). […] VLDL was isolated from media of each plate and VLDL-B100 was quantified by immuno slot blotting. Results presented are averages of the 3 plates ±S.D. (FIG. 4B) McA cells were incubated for 18 h in 1% BSA/DMEM±10 μM cpd984. McA cells were then stimulated with a time course of 250 nM insulin (0, 5, 10 and 15 min). IRβ and AKT, pY-IRβ, and p-AKT (S473) were evaluated by immunoblotting using protein and phosphospecific antibodies.
McA cell lysates were prepared and denatured proteins were separated by SDS-PAGE as described previously. Following electrophoretic transfer to PVDF membranes and blocking non-specific binding, membranes were incubated with primary antibodies overnight at 4° C. in blocking buffer. Antibody binding was detected by incubation for 1-2 h at room temperature with species specific secondary HRP-linked antibodies and developed using Amersham™ Prime reagent (GE Healthcare). Insulin signaling to IRβ and AKT were evaluated using nitrocellulose membranes (Bio-Rad) and phosphospecific (pY, p-AKT(Ser473) and mass specific antibodies. Chemiluminescence was measured using the ChemiDocXRS+system (Bio-Rad) and band intensities quantified using Image Lab 3.0.1 software (Bio-Rad).

Kd ([1]; high affinity binding range): 0.007 µM | Kd ([1]; low affinity binding range): 100 to 300 µM
SMILES: CN1CCC[C@H]1C(=O)Nc1cccc(NC(=O)CCc2ccccc2)c1 [cpd984, (2S)-1-methyl-N-{3-[(3-phenylpropanoyl)-amino]phenyl} pyrrolidine-2-carboxamide]
effect on LDL receptors [2]: increase in LDL receptors | effect on insulin sensitivity (insulin-dependent pY of IRβ, pAKT) [3]: did not alter insulin sensitivity
